Experimental findings from US9187460B2, “Estrogen receptor modulators and uses thereof” (SERAGON PHARMACEUTICALS, INC., priority 2011, dated 2015) are described below.

In general, IC50 refers to the concentration needed to halve the response being measured.

For one experiment, the target named is T1, ER-α (Homo sapiens, UniProt P03372).
T1 construct: endogenous in cells; host or cells: MCF-7
The experiment can be described thus: Breast Cancer Cell ER-α in Cell Western Assay (SP1). In kind it is cell-based. Particulars: MCF7, read-out: ER In-Cell Western Assay (SP1); Max Response. As for the experimental part:
Breast Cancer Cell ER-α in Cell Western Assay (SP1)
MCF-7 cells were adjusted to a concentration of 200,000 cells per mL in RPMI containing 10% charcoal-stripped FBS and 20 mM HEPES. 16 microliters of the cell suspension (3200 cells) was added to each well of a poly-D-lysine 384 well plate, and the cells were incubated overnight to allow the cells to adhere. The following day an eleven point, serial semilog dilution of each compound was added to the cells in 16 μL at a final concentration ranging from 0.3-0.000003 μM. At 4 or 24 hr post compound addition, the cells were fixed (10% formalin in PBS) for 20 minutes. Cells were permeablized in PBS 0.1% Triton and blocked with LICOR blocking buffer (50 μl/well, 90′). The wells were then incubated overnight at 4° C. with SP1 rabbit monoclonal Ab (Thermo Scientific) diluted 1:1000 in LICOR blocking buffer/0.1% Tween-20. Wells which were treated with blocking buffer with Tween but no antibody were used as a background control. Wells were washed with 0.1% Tween-20/PBS and then incubated in goat anti-rabbit IRDye™ 800CW (LICOR Inc.; 1:1000) and DRAQ5 DNA dye (1:2000 for 2 mM stock) diluted in LICOR blocking buffer containing 0.1% Tween-20 and 0.01% SDS for 60 minutes. Cells were washed (50 μl/well, 5′ each) in 0.1% Tween-20/PBS. Plates were scanned on a LICOR Odyssey infrared imaging system. Integrated intensities in the 800 nm channel and 700 nm channel were measured to determine levels of ER and DNA respectively. Percent ER levels were determined as follows: (Integrated intensity 800 nm sample/integrated intensity 700 nm sample)/(Integrated intensity 800 nm untreated cells/integrated intensity 700 nm untreated cells)×100=% ER levels.

The next experiment has as its system MCF-7 cells. The experiment can be described thus: Breast Cancer Cell Viability Assay (MCF7 Viability Assay). The settings on record: for IC50: Homo sapiens, MCF7, 120 h, read-out: MCF7 Viability Assay IC50; for MCF7 Viability Assay Max Response: MCF-7 cells, 5 days' compound exposure, CellTiter-Glo. In kind it is cell-based. (ATP-based viability assays read luminescence as a measure of living cells.)

Bounds are passed on as bounds.

T1 sequence (P03372 whole entry): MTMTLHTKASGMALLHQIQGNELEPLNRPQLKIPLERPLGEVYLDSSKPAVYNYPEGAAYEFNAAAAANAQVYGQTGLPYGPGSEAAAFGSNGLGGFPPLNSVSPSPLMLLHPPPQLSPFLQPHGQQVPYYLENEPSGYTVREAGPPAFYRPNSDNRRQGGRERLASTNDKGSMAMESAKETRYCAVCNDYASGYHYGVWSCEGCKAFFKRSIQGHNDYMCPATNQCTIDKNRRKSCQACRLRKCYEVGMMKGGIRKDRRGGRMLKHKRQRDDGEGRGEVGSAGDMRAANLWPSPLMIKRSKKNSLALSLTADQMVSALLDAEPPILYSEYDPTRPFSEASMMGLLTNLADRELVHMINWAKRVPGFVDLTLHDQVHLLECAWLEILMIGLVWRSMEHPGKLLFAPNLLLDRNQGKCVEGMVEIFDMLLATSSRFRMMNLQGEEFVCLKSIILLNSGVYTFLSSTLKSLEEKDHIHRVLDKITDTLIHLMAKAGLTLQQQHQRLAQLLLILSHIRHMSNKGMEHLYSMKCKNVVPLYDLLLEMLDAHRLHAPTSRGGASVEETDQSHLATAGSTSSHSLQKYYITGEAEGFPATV

As for `COc1ccc2c(c1)C(C)=C(c1ccc(O)cc1)C(c1ccc(OC[C@H](C)N3CC[C@@H](C)C3)cc1)O2` (stereo partly drawn) [Example 30, 4-(6-Methoxy-4-methyl-2-(4-((S)-2-((R)-3-methylpyrrolidin-1-yl)propoxy)phenyl)-2H-chromen-3-yl)phenol], the Emax on ER-α was 60 to 85%. Besides, in the experiment with MCF-7 cells, the IC50 was greater than 1 nM and the “MCF7 Viability Assay Max Response” value is on record as “++ (++ = a single % value ≧50%)”.

In the case of `COc1cccc(C2=C(C)c3cc(O)ccc3OC2c2ccc(OC[C@H](C)N3CC[C@@H](C)C3)cc2)c1` (stereo partly drawn) [Example 31, 3-(3-Methoxyphenyl)-4-methyl-2-(4-((S)-2-((R)-3-methylpyrrolidin-1-yl)propoxy)phenyl)-2H-chromen-6-ol], on ER-α, the Emax was 60 to 85%. Also, in the experiment with MCF-7 cells, the half-inhibitory concentration (IC50) is greater than 1 nM and the “MCF7 Viability Assay Max Response” value was “++ (++ = a single % value ≧50%)”.
